Assay results reported in PMC3433255 (Journal of medicinal chemistry, 2012).

Key:
[1] = system: MCF-7 breast cancer cells; assay: Growth inhibition, 3 h treatment; assay type: cell-based, human; conditions: MCF-7, 3 h treatment followed by 3 – 4 days of growth; outside the concentration range; average of at least six measurements
[2] = physiological conditions, 37 °C and pH 7; cited from earlier work

SMILES | IC50 [1] [log M] | half-life of hydrolysis to dox [2]
COc1cccc2c1C(=O)c1c(O)c3c(c(O)c1C2=O)C[C@@](O)(C(=O)CO)C[C@@H]3O[C@H]1C[C@H](NC(=O)OCc2ccc(NC(=O)[C@H](CCCCN)NC(=O)[C@H](Cc3ccccc3)NC(=O)[C@@H](C)N)cc2)[C@H](O)[C@H](C)O1.O=P(O)(O)O [aFK-Dox, N-(N-(D-alanyl-L-phenylalanyl-L-lysyl)-p-aminobenzyloxycarbonyl)-doxorubicin] | > −6 | –
COc1cccc2c1C(=O)c1c(O)c3c(c(O)c1C2=O)C[C@@](O)(C(=O)CO)C[C@@H]3O[C@H]1C[C@@H]2NCO[C@@H]2[C@H](C)O1 [doxaz, doxazolidine] | – | approximately 3 min
